In BigSolDB 2.1:

c1ccc2c(c1)Nc1ccccc1S2
solubility (mole fraction)
Conditions	298.2 K	308.2 K	318.2 K	328.2 K	338.2 K
in ethanol	0.00876	0.01	0.0122	0.0145	–
in propylene glycol	0.00416	0.0054	0.00656	0.00763	0.00852
in water	1.56e-07	1.98e-07	2.52e-07	3.58e-07	4.91e-07
